Measured values from paper PMC5662840, “Effect of Gelsemium elegans and Mussaenda pubescens, the Components of a Detoxification Herbal Formula, on Disturbance of the Intestinal Absorptions of Indole Alkaloids in Caco-2 Cells” (Evidence-based Complementary and Alternative Medicine : eCAM, 2017).

Key:
[1] = Bidirectional transport of indole alkaloids from GE and GM extracts across Caco-2 cells monolayer; assay type: in vitro ADME, Human; details: human; for efflux ratio / efflux ratio at 4 h: Caco-2, GM without inhibitor, read-out: efflux ratio γ (Papp BL-AP / Papp AP-BL); for Papp A→B / Papp B→A / Papp A→B at 4 h / Papp B→A at 4 h: Caco-2, GM (control group), mean ± SEM, n = 3; for Papp A→B / Papp A→B at 4 h: apical-to-basolateral; for Papp B→A / Papp B→A at 4 h: basolateral-to-apical
Experimental: (§1) Human colon adenocarcinoma cell lines (Caco-2) were obtained from the cell bank of Chinese Academy of Sciences (Beijing, China). Cells were routinely grown in DMEM supplemented with 10% (v/v) fetal bovine serum, 1% (v/v) glutamine, 1% (v/v) nonessential amino acid solution, and 100 U/mL penicillin-streptomycin solution under a humidified atmosphere of 5% CO2 at 37°C. The medium was replaced every 2 days after incubation. After reaching 80% confluence, cells were passaged at a split ratio of 1 : 5, using 0.05% trypsin-EDTA. For the transport experiments, the cells of passages were seeded at a density of 1.0 × 10^6 cells/cm^2 on permeable polycarbonate inserts in 6-well tissue culture plates (Transwell Polycarbonate Membrance Insert 3414, Corning, USA), which has a surface area of 4.2 cm^2. Culture medium was changed every two days for 14 days and daily thereafter for the next 7 days. In our culture condition, cells monolayer, after seeding approximately between 19 and 21 days, usually was available for transport experiments.
(§2) The extracts, including GE and GM, were freshly prepared to the desired final concentration in DMSO. The final concentrations of DMSO in the incubation system were controlled within 0.1% (v/v) in all subsequent experiments. All transport experiments were conducted at 37°C unless specified otherwise. Transport of indole alkaloids across the Caco-2 cells monolayer was studied using monolayer of 19–21 days after seeding. Before the experiment, the monolayer was washed twice and preincubated with the blank HBSS for 1 h. Thereafter the HBSS solution on both sides of the cells monolayer was aspirated.
(§3) Transport studies were conducted in the absorptive direction (apical- (AP-) basolateral (BL)) and the efflux direction (BL-AP), separately. For determination of AP to BL transport, 2.5 mL of sample solutions was added to the AP side, respectively, and 2.5 mL of blank HBSS was added to the BL side. For determination of BL to AP transport, 2.5 mL of sample solutions was added to the BL side, respectively, and 2.5 mL of blank HBSS was added to the AP side. The cells monolayer was then put into a shaker at 50 rpm during the transport process. 400 μL of samples was taken for LC-MS/MS analysis at 0, 1, 2, 3, and 4 h after incubation, followed by an immediate replacement of 400 μL of the same solutions. At the end of the transport experiment, integrity of the monolayer was monitored by TEER value.
(§4) 400 μL of samples obtained from the Caco-2 cells transport assays was dried under nitrogen, and the residues were dissolved in 800 μL of 50% methanol. Followed by centrifugation at 12,000 rpm for 15 min, the supernatants were directly analyzed with UPLC-ESI-MS/MS. Chromatography-mass spectrum conditions were set as described above. The method researches of LC-MS/MS were similar to those described previously. Regression equations of gelsemine, humantenidine, koumine, gelsenicine, gelsevirine, and humantenine were Y = 23675X − 2864 (r = 0.9995), Y = 66331X + 13558 (r = 0.9995), Y = 6268X − 1503 (r = 0.9996), Y = 91160X − 10147 (r = 0.9998), Y = 32116X − 3951 (r = 0.9990), and Y = 36977X + 13830 (r = 0.9994), respectively.
(§5) All experiments were run in triplicate. […] The apparent permeability coefficients (Papp) for both the absorptive direction (AP→BL) and the efflux direction (BL→AP) studies were calculated according to the following:(3) Papp=dQ/dt/A×C0, where dQ/dt (μg·min^−1) is the drug permeation rate, A (cm^2) is the filter surface area, and C0 (μg·mL^−1) is the initial concentration in the donor chamber at t = 0 min.
(§6) The efflux ratio (γ) was calculated with the following equation:(4) γ=PappBL-AP/PappAP-BL.

Caco-2 cells monolayer = test: as above; assay type: in vitro ADME, Human; details: for decrement of absorbance percentage: GM (GE combined with MP) versus GE sample; for efflux Papp relative to absorptive Papp: GM sample; for efflux ratio γ (Papp BL-AP / Papp AP-BL): GM without inhibitor
Experimental: as §1, §2, §3, §4, §5, §6

P-gp = biological target: T1, P-gp (Homo sapiens, UniProt P08183); test: Inhibition transport study: GM with verapamil (P-gp inhibitor) across Caco-2 cells monolayer; assay type: in vitro ADME; details: for decrease of efflux ratio γ: GM + verapamil compared with GM; for Papp A→B / Papp B→A / efflux ratio / Papp A→B at 4 h / Papp B→A at 4 h / efflux ratio at 4 h: human, Caco-2; for Papp A→B / Papp B→A / Papp A→B at 4 h / Papp B→A at 4 h: GM + verapamil (50 μmol), mean ± SEM, n = 3; for Papp A→B / Papp A→B at 4 h: apical-to-basolateral; for Papp B→A / Papp B→A at 4 h: basolateral-to-apical; for efflux ratio / efflux ratio at 4 h: GM + verapamil, read-out: efflux ratio γ (Papp BL-AP / Papp AP-BL)
T1 construct: endogenous in cells; host or cells: Caco-2 cells (cell bank of Chinese Academy of Sciences)
Experimental: (§7) As efflux transporters (P-gp and MRP2) are expressed on the apical side of Caco-2 cells, the absorption or efflux transport of indole alkaloids across this model was investigated in the presence of efflux transporters inhibitors. A selective P-gp inhibitor, verapamil (50 μmol), was added to GM. 10 μmol ciclosporin (a P-gp and MRP2 inhibitor) was also added to GM. The control group was set as well. After the preincubation, the different mixes were performed in Caco-2 cells monolayer. Transport studies were undertaken as mentioned above in the absorptive direction (AP-BL) and the efflux direction (BL-AP), separately. The samples were taken at 0, 1, 2, 3, and 4 h for LC-MS/MS analysis. The absorption and efflux transport apparent permeability (Papp) of indole alkaloids were determined.
as §5, §6
(§8) The γ values are used to assess the effect of efflux transporters on the test compounds in the presence and absence of efflux transporters inhibitors.

P-gp and MRP2 = test: Inhibition transport study: GM with ciclosporin (P-gp and MRP2 inhibitor) across Caco-2 cells monolayer; assay type: in vitro ADME, Human; details: for decrease of efflux ratio γ: GM + ciclosporin compared with GM; for Papp A→B / Papp B→A / efflux ratio / Papp A→B at 4 h / Papp B→A at 4 h / efflux ratio at 4 h: human, Caco-2; for Papp A→B / Papp B→A / Papp A→B at 4 h / Papp B→A at 4 h: GM + ciclosporin (10 μmol), mean ± SEM, n = 3; for Papp A→B / Papp A→B at 4 h: apical-to-basolateral; for Papp B→A / Papp B→A at 4 h: basolateral-to-apical; for efflux ratio / efflux ratio at 4 h: GM + ciclosporin, read-out: efflux ratio γ (Papp BL-AP / Papp AP-BL)
Experimental: as §7, §5, §6, §8

T1 sequence (P08183 whole entry): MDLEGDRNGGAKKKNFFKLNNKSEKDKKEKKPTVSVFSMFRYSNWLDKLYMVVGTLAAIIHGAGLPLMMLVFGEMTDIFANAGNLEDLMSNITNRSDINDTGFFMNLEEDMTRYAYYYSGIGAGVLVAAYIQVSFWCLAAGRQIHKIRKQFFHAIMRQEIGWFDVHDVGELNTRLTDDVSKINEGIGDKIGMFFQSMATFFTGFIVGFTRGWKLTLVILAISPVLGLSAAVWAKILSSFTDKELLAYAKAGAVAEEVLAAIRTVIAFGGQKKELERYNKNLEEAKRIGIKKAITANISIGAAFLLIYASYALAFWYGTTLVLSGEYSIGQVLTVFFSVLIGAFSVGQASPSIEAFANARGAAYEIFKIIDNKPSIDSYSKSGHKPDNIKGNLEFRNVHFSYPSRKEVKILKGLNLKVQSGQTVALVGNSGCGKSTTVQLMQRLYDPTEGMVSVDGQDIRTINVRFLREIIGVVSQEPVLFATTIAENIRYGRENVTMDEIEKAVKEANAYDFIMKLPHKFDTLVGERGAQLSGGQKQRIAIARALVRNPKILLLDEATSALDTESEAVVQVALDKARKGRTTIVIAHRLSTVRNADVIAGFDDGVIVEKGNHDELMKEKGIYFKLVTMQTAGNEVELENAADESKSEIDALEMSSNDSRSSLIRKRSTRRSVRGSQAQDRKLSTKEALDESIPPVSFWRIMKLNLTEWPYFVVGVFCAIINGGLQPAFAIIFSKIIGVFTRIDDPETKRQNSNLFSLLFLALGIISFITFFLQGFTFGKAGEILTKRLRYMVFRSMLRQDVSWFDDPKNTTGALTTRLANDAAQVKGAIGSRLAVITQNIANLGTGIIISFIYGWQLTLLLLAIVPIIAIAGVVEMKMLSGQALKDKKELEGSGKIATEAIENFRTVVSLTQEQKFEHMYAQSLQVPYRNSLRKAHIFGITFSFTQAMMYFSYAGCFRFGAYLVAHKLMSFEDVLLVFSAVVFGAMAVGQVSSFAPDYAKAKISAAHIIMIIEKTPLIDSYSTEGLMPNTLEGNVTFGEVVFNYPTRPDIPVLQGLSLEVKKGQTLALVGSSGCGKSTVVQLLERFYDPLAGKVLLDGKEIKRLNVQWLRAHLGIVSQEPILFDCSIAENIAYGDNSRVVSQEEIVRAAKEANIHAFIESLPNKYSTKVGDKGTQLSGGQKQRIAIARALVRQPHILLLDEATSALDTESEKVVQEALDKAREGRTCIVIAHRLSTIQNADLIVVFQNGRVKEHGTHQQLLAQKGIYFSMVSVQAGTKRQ

SMILES	efflux ratio [1]	Papp A→B [1] [×10⁻⁶ cm/s]	Papp B→A [1] [×10⁻⁶ cm/s]	decrement of absorbance percentage (Caco-2 cells monolayer; apical to basolateral)	decrease of efflux ratio γ (P-gp) [%]	Papp A→B (P-gp) [×10⁻⁶ cm/s]	Papp B→A (P-gp) [×10⁻⁶ cm/s]	efflux ratio (P-gp)	decrease of efflux ratio γ (P-gp and MRP2) [%]	Papp A→B (P-gp and MRP2) [×10⁻⁶ cm/s]	Papp B→A (P-gp and MRP2) [×10⁻⁶ cm/s]	efflux ratio (P-gp and MRP2)	efflux Papp relative to absorptive Papp (Caco-2 cells monolayer)	efflux ratio γ (Papp BL-AP / Papp AP-BL) (Caco-2 cells monolayer)	efflux ratio at 4 h [1]	Papp A→B at 4 h [1] [×10⁻⁶ cm/s]	Papp B→A at 4 h [1] [×10⁻⁶ cm/s]	Papp A→B at 4 h (P-gp) [×10⁻⁶ cm/s]	Papp B→A at 4 h (P-gp) [×10⁻⁶ cm/s]	efflux ratio at 4 h (P-gp)	also measured
C/C=C1\CN(C)[C@H]2C[C@@]3(C(=O)N(OC)c4ccccc43)[C@H]3C[C@@H]1[C@@H]2CO3 [Humantenine, humantenine]	1.46	6.93 ± 1.59	9.87 ± 1.75	about 12%	8.90	437 ± 71.2	580 ± 109	1.33	15.07	515 ± 101	637 ± 90.1	1.24									
C=CC12CN(C)C3C4COC(CC41)C1(C(=O)N(OC)c4ccccc41)C32 (centres unmarked) [Gelsevirine, gelsevirine]	> 2	6.33 ± 2.31	12.7 ± 2.67	over 3%	36.00	392 ± 58.1	503 ± 93	1.28	34.00	464 ± 93.8	614 ± 56.8	1.32	approximately 2.0 times	2.00							
C=C[C@]12CN(C)[C@@H]3[C@H]4CO[C@H](C[C@H]41)[C@]1(C(=O)Nc4ccccc41)[C@@H]32 [Gelsemine, gelsemine]														1.07	~1	6.83 ± 2.64	7.33 ± 2.77	30.3 ± 7.45	33.2 ± 8	1.09	Papp A→B at 4 h (P-gp and MRP2): 35.6 ± 7.63 ×10⁻⁶ cm/s; Papp B→A at 4 h (P-gp and MRP2): 39.1 ± 8.91 ×10⁻⁶ cm/s; efflux ratio at 4 h (P-gp and MRP2): 1.1
C=C[C@@]12CN(C)[C@H]3C[C@]14C(=Nc1ccccc14)[C@H]1C[C@@H]2[C@@H]3CO1 [Koumine, koumine]	~1	11.8 ± 4.01	13.4 ± 3.84			348 ± 67.4	416 ± 80.5	1.19		440 ± 93.3	524 ± 91.5	1.19		1.13							
CCC1=N[C@H]2C[C@@]3(C(=O)N(OC)c4ccccc43)[C@H]3C[C@@H]1[C@@H]2CO3 [Gelsenicine, gelsenicine]				about 12%	41.42				40.59				approximately 2.0 times	2.39	> 2	2.8 ± 0.11	6.69 ± 1.35	86.6 ± 15.8	122 ± 26.1	1.4	Papp A→B at 4 h (P-gp and MRP2): 101 ± 28.4 ×10⁻⁶ cm/s; Papp B→A at 4 h (P-gp and MRP2): 143 ± 10.8 ×10⁻⁶ cm/s; efflux ratio at 4 h (P-gp and MRP2): 1.42
CCC1=NC2CC3(C(=O)N(OC)c4ccccc43)C3OCC2C1C3O (centres unmarked) [Humantenidine, humantenidine]	> 2	0.14 ± 0.044	0.41 ± 0.05		43.69	3.14 ± 1.19	6.17 ± 0.57	1.65	42.32	4.48 ± 1.06	7.57 ± 0.36	1.69	approximately 2.0 times	2.93							absorbance percentage, rank among all indole alkaloids (Caco-2 cells monolayer; GE sample, apical to basolateral, during 4 h): highest
